Reference: patent US11066436B2, “5′-phosphorothiolate mRNA 5′-end (cap) analogs, mRNA comprising the same, method of obtaining and uses thereof” (Uniwersytet Warszawski, priority 2016, dated 2021)
Entries after “also recorded” stand apart in the source; their conditions may differ.

Key:
[1] = biological target: T1, human DcpS enzyme (hDcpS) (Homo sapiens, UniProt Q96C86); assay: Susceptibility of cap analogs to degradation by DcpS enzyme (RP-HPLC); format: biochemical; details: for DcpS susceptibility: cap analog 20 μM, hDcpS 100 nM, RP-HPLC; for hydrolysis by hDcpS: tested as substrates of hDcpS, RP HPLC
T1 construct: made in house
T1 sequence (Q96C86 1-337): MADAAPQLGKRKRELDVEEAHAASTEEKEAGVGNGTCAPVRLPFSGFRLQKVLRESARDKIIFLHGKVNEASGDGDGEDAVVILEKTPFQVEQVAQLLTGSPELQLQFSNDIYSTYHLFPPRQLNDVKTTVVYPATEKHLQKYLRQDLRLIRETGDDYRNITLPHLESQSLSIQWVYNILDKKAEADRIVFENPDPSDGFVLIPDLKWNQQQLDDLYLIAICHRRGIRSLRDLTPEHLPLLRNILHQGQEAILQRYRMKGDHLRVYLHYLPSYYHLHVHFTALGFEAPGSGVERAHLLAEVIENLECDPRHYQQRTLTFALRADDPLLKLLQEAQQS
Protocol: Test 1. The Susceptibility Study of Analogs to Degradation by DcpS Enzyme.
The aim of the test was to check if new 5′-thiophosphate cap analogs are hydrolyzed by human DcpS enzyme (hDcpS). Recombinant human protein encoding DcpS enzyme was expressed as described previously (Kowalska, Lewdorowicz et al. 2008). The susceptibility of new analogs to hDcpS hydrolysis is tested in 50 mM Tris-HCl buffer containing 200 mM KCl and 0.5 mM EDTA. Reaction mixture includes the tested cap analog (20 μM) and hDcpS enzyme (100 nM) in 400 μl of buffer. At the appropriate intervals 100 μl sample is collected from the reaction mixture. Sample is incubated at 98° C. for 2.5 min, and then cooled to 0° C. and analyzed on RP-HPLC under conditions described in general informations. In tests also commercially available inhibitor of DcpS was tested, the compound RG3039 (no. 000) (https://www.mda.org/quest/fda-approves-phase-1-clinical-trial-rg3039-sma), GppSG (no. 19), GpppSG (no. 20), as well m^7GpppG (no. 0) and m^7Gpp (no. 00) as controls. Exemplary results obtained are shown on FIG. 5 and Table 5.

hDcpS enzyme = biological target: T2, hDcpS enzyme (Homo sapiens, UniProt Q96C86); assay: IC50 determination for selected inhibitors of DcpS (fluorescence, m^7GMPF probe); format: biochemical; details: for IC50: m^7GMPF 60 μM, hDcpS 50 nM, tested compound 0-50 μM
T2 construct: made in house
T2 sequence (Q96C86 1-337): T1 sequence (Q96C86 1-337)
Protocol: Test 2. IC50 Determination for Selected Inhibitors
The buffer in this test and in the test 1 is the same. Ten mixture reactions were prepared at the same time and each of them contained a m^7GMPF (60 μM), hDcpS enzyme (50 nM) and the tested compound in concentration range between 0-50 μM in 200 μl of buffer. After appropriate time, when 30% of substrate were converted into product without inhibitor, the reaction was stopped by mixing with 100 μl of ACN. Samples of 25 μl were taken for analysis, followed by mixing with 90 μl of TBDS-fluorescein solution of concentration 2.5 μM in DMSO and incubated for 60 min. Next, 100 μl of 200 mM HEPES buffer pH=7.0 was added to the samples and the fluorescence was measured as described in general information. Based on the results, dependence of inhibitor concentration vs. fluorescence were plotted and the IC50 values were determined by fitting theoretical curve to data.

Structure (SMILES) | DcpS susceptibility [1] | hydrolysis by hDcpS [1] | inhibition of hDcpS (hDcpS enzyme; fluorescence method and fluorogenic probe) | IC50 (hDcpS enzyme) [nM]
C[n+]1cn([C@@H]2O[C@H](CSP(=O)(O)OP(=O)([S-])OP(=O)(O)SC[C@H]3O[C@@H](n4cnc5c(=O)[nH]c(N)nc54)C(O)C3O)C(O)C2O)c2nc(N)nc(O)c21 (single isomer, unassigned) [compound 34] | resistant/inhibitor | stability in the presence of DcpS enzyme | best inhibitory properties | 51 ± 8
C[n+]1cn([C@@H]2O[C@H](CSP(=O)(O)OP(=O)([S-])OP(=O)(O)OC[C@H]3O[C@@H](n4cnc5c(=O)[nH]c(N)nc54)C(O)C3O)C(O)C2O)c2nc(N)nc(O)c21 (stereo partly drawn) [compound 30] | resistant/inhibitor | stability in the presence of DcpS enzyme |  | 230 ± 40
C[n+]1cn([C@@H]2O[C@H](COP(=O)(O)OP(=O)(O)OP(=O)([O-])SC[C@H]3O[C@@H](n4cnc5c(=O)[nH]c(N)nc54)C(O)C3O)C(O)C2O)c2nc(N)nc(O)c21 (stereo partly drawn) [compound 22] | hydrolyzable | hydrolyzed |  | 
C[n+]1cn([C@@H]2O[C@H](CSP(=O)(O)OP(=O)([S-])OP(=O)(O)OC[C@H]3O[C@@H](n4cnc5c(=O)[nH]c(N)nc54)C(O)C3O)C(O)C2O)c2nc(N)nc(O)c21 (stereo partly drawn) [compound 31] | resistant/inhibitor | stability in the presence of DcpS enzyme |  | 170 ± 20
C[n+]1cn([C@@H]2O[C@H](CSP(=O)([O-])OP(=O)(O)OP(=O)(O)SC[C@H]3O[C@@H](n4cnc5c(=O)[nH]c(N)nc54)C(O)C3O)C(O)C2O)c2nc(N)nc(O)c21 (stereo partly drawn) [compound 32] | resistant/inhibitor | stability in the presence of DcpS enzyme |  | 330 ± 90
C[n+]1cn([C@@H]2O[C@H](CSP(=O)([O-])OP(=O)(O)OP(=O)(O)OC[C@H]3O[C@@H](n4cnc5c(=O)[nH]c(N)nc54)C(O)C3O)C(O)C2O)c2nc(N)nc(O)c21 (stereo partly drawn) [compound 24] | resistant/inhibitor | resistant; also recorded: stability in the presence of DcpS enzyme |  | 840 ± 70
C[n+]1cn([C@@H]2O[C@H](COP(=O)(O)OP(=O)(O)O)[C@@H](O)[C@H]2O)c2nc(N)nc([O-])c21 [compound 00] | resistant/inhibitor |  |  | 4300 ± 780
COC1C(O)[C@@H](COP(=O)(O)OP(=O)(O)OP(=O)([O-])SC[C@H]2O[C@@H](n3cnc4c(=O)[nH]c(N)nc43)C(O)C2O)O[C@H]1n1c[n+](C)c2c(O)nc(N)nc21 (stereo partly drawn) [compound 38] | hydrolyzable | hydrolyzed |  | 72000 ± 17000
COC1C(O)[C@@H](CSP(=O)([O-])OP(=O)(O)OP(=O)(O)OC[C@H]2O[C@@H](n3cnc4c(=O)[nH]c(N)nc43)C(O)C2O)O[C@H]1n1c[n+](C)c2c(O)nc(N)nc21 (stereo partly drawn) [compound 26] | resistant/inhibitor | stability in the presence of DcpS enzyme |  | 12600 ± 5220
C[n+]1cn([C@@H]2O[C@H](COP(=O)(O)OP(=O)([O-])SC[C@H]3O[C@@H](n4cnc5c(=O)[nH]c(N)nc54)C(O)C3O)C(O)C2O)c2nc(N)nc(O)c21 (stereo in doubt) [compound 21] | hydrolyzable | hydrolyzed |  | 
C[n+]1cn([C@@H]2O[C@H](CSP(=O)([O-])OP(=O)(O)CP(=O)(O)OC[C@H]3O[C@@H](n4cnc5c(=O)[nH]c(N)nc54)C(O)C3O)C(O)C2O)c2nc(N)nc(O)c21 (stereo partly drawn) [compound 25] | resistant/inhibitor | stability in the presence of DcpS enzyme |  | 6250 ± 1220
C[n+]1cn([C@@H]2O[C@H](COP(=O)(O)OP(=O)([S-])OP(=O)(O)SC[C@H]3O[C@@H](n4cnc5c(=O)[nH]c(N)nc54)C(O)C3O)C(O)C2O)c2nc(N)nc(O)c21 (stereo partly drawn) [compound 36] | hydrolyzable | hydrolyzed |  | 
C[n+]1cn([C@@H]2O[C@H](CSP(=O)(O)OP(=O)([S-])OP(=O)(O)SC[C@H]3O[C@@H](n4cnc5c(=O)[nH]c(N)nc54)C(O)C3O)C(O)C2O)c2nc(N)nc(O)c21 (single isomer, unassigned) [compound 33] | resistant/inhibitor | stability in the presence of DcpS enzyme |  | 260 ± 40
Nc1nc2c(ncn2[C@@H]2O[C@H](COP(=O)(O)OP(=O)(O)SC[C@H]3O[C@@H](n4cnc5c(=O)[nH]c(N)nc54)[C@H](O)[C@@H]3O)[C@@H](O)[C@H]2O)c(=O)[nH]1 [compound 19] | hydrolyzable |  |  | > 100000
C[n+]1cn([C@@H]2O[C@H](CSP(=O)([O-])OP(=O)(O)O)C(O)[C@@H]2O)c2nc(N)nc(O)c21 (stereo partly drawn) [compound 12] | resistant/inhibitor | stability in the presence of DcpS enzyme |  | 1930 ± 380
C[n+]1cn([C@@H]2O[C@H](COP(=O)(O)CP(=O)(O)OP(=O)([O-])SC[C@H]3O[C@@H](n4cnc5c(=O)[nH]c(N)nc54)C(O)C3O)C(O)C2O)c2nc(N)nc(O)c21 (stereo partly drawn) [compound 37] | resistant/inhibitor | resistant to hydrolysis; also recorded: stability in the presence of DcpS enzyme |  | 5670 ± 1010
C[n+]1cn([C@@H]2O[C@H](COP(=O)(O)OP(=O)([S-])OP(=O)(O)SC[C@H]3O[C@@H](n4cnc5c(=O)[nH]c(N)nc54)C(O)C3O)C(O)C2O)c2nc(N)nc(O)c21 (stereo partly drawn) [compound 35] | hydrolyzable | hydrolyzed |  | 
Nc1nc2c(ncn2[C@@H]2O[C@H](COP(=O)(O)OP(=O)(O)OP(=O)(O)SC[C@H]3O[C@@H](n4cnc5c(=O)[nH]c(N)nc54)[C@H](O)[C@@H]3O)[C@@H](O)[C@H]2O)c(=O)[nH]1 [compound 20] | hydrolyzable |  |  | > 100000
C[n+]1cn([C@@H]2O[C@H](CSP(=O)([O-])OP(=O)(O)OC[C@H]3O[C@@H](n4cnc5c(=O)[nH]c(N)nc54)C(O)C3O)C(O)C2O)c2nc(N)nc(O)c21 (stereo in doubt) [compound 23] | resistant/inhibitor | stability in the presence of DcpS enzyme |  | 2810 ± 510
